Data as given in patent US10167262B2, “Herbicidal substituted 3-arylpyrazoles” (FMC CORPORATION, priority 2014, dated 2019).

How the values were obtained:
Assay in all cases: Test E pre-/postemergence greenhouse test, plant response rating 0-100
Assay type in all cases: in vivo
[1] = tested on: yellow nutsedge (Cyperus esculentus); settings: Preemergence, scale 0 to 100
[2] = tested on: johnsongrass (Sorghum halepense); settings: Preemergence, scale 0 to 100
[3] = tested on: smartweed (ladysthumb smartweed, Polygonum persicaria); settings: scale 0 to 100; for Smartweed plant response rating: Preemergence
[4] = tested on: velvetleaf (Abutilon theophrasti); settings: Preemergence, scale 0 to 100
In short: (§1)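 Greenhouse pot assay, two application timings. Pre- to silt loam at planting; post- to 1–4-leaf plants. Visual 0–100 score at 14–21 d.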

kochia (Kochia scoparia) = settings: Preemergence, scale 0 to 100
In short: as §1

[5] = tested on: goosegrass (Eleusine indica); settings: Preemergence, scale 0 to 100

SMILES	Nutsedge, Yellow plant response rating ([1]; 62 g ai/ha)	Nutsedge, Yellow plant response rating ([1]; 125 g ai/ha)	Nutsedge, Yellow plant response rating ([1]; 500 g ai/ha)	Johnsongrass plant response rating ([2]; 31 g ai/ha)	Johnsongrass plant response rating ([2]; 62 g ai/ha)	Johnsongrass plant response rating ([2]; 125 g ai/ha)	Johnsongrass plant response rating ([2]; 250 g ai/ha)	Johnsongrass plant response rating ([2]; 500 g ai/ha)	Smartweed plant response rating ([3]; 31 g ai/ha)	Smartweed plant response rating ([3]; 62 g ai/ha)	Smartweed plant response rating ([3]; 125 g ai/ha)	Smartweed plant response rating ([3]; 250 g ai/ha)	Smartweed plant response rating ([3]; 500 g ai/ha)	Velvetleaf plant response rating ([4]; 31 g ai/ha)	Velvetleaf plant response rating ([4]; 62 g ai/ha)	Velvetleaf plant response rating ([4]; 125 g ai/ha)	Velvetleaf plant response rating ([4]; 250 g ai/ha)	Velvetleaf plant response rating ([4]; 500 g ai/ha)	Kochia plant response rating (kochia (Kochia scoparia); 31 g ai/ha)	Kochia plant response rating (kochia (Kochia scoparia); 62 g ai/ha)	also measured
O=C(c1ccccc1)c1cn(S(=O)(=O)CC(F)(F)F)nc1-c1cc(Cl)cc(Cl)c1 [Compound 3]	50	35	75	0	0	0	35	35	0	0	0	0	0	20	20	35	40	80	0	20	Plant response rating, Smartweed ([3]; Postemergence, 500 g ai/ha): 90; Kochia plant response rating (kochia (Kochia scoparia); 125 g ai/ha): 25; Kochia plant response rating (kochia (Kochia scoparia); 250 g ai/ha): 50; Kochia plant response rating (kochia (Kochia scoparia); 500 g ai/ha): 70; Goosegrass plant response rating ([5]; 31 g ai/ha): 0; Goosegrass plant response rating ([5]; 62 g ai/ha): 0; Goosegrass plant response rating ([5]; 125 g ai/ha): 0; Goosegrass plant response rating ([5]; 250 g ai/ha): 35; Goosegrass plant response rating ([5]; 500 g ai/ha): 35
COCC(=O)n1cc(C(=O)c2ccccc2)c(-c2cc(Cl)cc(Cl)c2)n1 [Compound 16, 1-[4-benzoyl-3-(3,5-dichlorophenyl)-1H-pyrazol-1-yl]-2-methoxyethanone]	20	35	0	0	0	0	0	30	0	0	100	100	100	0	40	85	100	100	0	0	Nutsedge, Yellow plant response rating ([1]; 31 g ai/ha): 0; Nutsedge, Yellow plant response rating ([1]; 250 g ai/ha): 0; Kochia plant response rating (kochia (Kochia scoparia); 125 g ai/ha): 0; Kochia plant response rating (kochia (Kochia scoparia); 250 g ai/ha): 50; Kochia plant response rating (kochia (Kochia scoparia); 500 g ai/ha): 75; Goosegrass plant response rating ([5]; 31 g ai/ha): 0; Goosegrass plant response rating ([5]; 62 g ai/ha): 0; Goosegrass plant response rating ([5]; 125 g ai/ha): 0; Goosegrass plant response rating ([5]; 250 g ai/ha): 40; Goosegrass plant response rating ([5]; 500 g ai/ha): 50
